From the NIST ThermoML archive (doi:10.1007/s10765-009-0602-6)

Assay: molar heat capacity at constant volume; xn = mol fraction of the nth substance listed
Settings: x1 = 0.2607

N [ammonia] + O
Settings	molar heat capacity at constant volume [J/K/mol]
600.42 K, Fluid (supercritical or subcritical phases), Mass density=309.95 kg/m3, isochoric heat capacity	99.2
600.43 K, Fluid (supercritical or subcritical phases), Mass density=301.94 kg/m3, isochoric heat capacity	108.54
600.45 K, Fluid (supercritical or subcritical phases), Mass density=308.35 kg/m3, isochoric heat capacity	94.94
600.48 K, Fluid (supercritical or subcritical phases), Mass density=299.79 kg/m3, isochoric heat capacity	116.67
600.48 K, Liquid, Isochoric heat capacity	116.67
600.5 K, Fluid (supercritical or subcritical phases), Mass density=299.79 kg/m3, isochoric heat capacity	112.59
600.5 K, Fluid (supercritical or subcritical phases), Mass density=303.47 kg/m3, isochoric heat capacity	94.55
600.51 K, Fluid (supercritical or subcritical phases), Mass density=301.94 kg/m3, isochoric heat capacity	105.98
600.51 K, Fluid (supercritical or subcritical phases), Mass density=309.95 kg/m3, isochoric heat capacity	100.78
600.59 K, Fluid (supercritical or subcritical phases), Mass density=299.79 kg/m3, isochoric heat capacity	104.74
600.59 K, Fluid (supercritical or subcritical phases), Mass density=301.94 kg/m3, isochoric heat capacity	99.68
600.59 K, Fluid (supercritical or subcritical phases), Mass density=303.47 kg/m3, isochoric heat capacity	94.4
600.59 K, Fluid (supercritical or subcritical phases), Mass density=309.95 kg/m3, isochoric heat capacity	100.97
600.62 K, Fluid (supercritical or subcritical phases), Mass density=308.35 kg/m3, isochoric heat capacity	91.03
600.63 K, Fluid (supercritical or subcritical phases), Mass density=297.6 kg/m3, isochoric heat capacity	114.9
600.63 K, Liquid, Isochoric heat capacity	114.9
600.66 K, Fluid (supercritical or subcritical phases), Mass density=303.47 kg/m3, isochoric heat capacity	95.13
600.67 K, Fluid (supercritical or subcritical phases), Mass density=299.79 kg/m3, isochoric heat capacity	101.47
600.69 K, Fluid (supercritical or subcritical phases), Mass density=309.95 kg/m3, isochoric heat capacity	95.49
600.72 K, Fluid (supercritical or subcritical phases), Mass density=297.6 kg/m3, isochoric heat capacity	112.64
600.77 K, Fluid (supercritical or subcritical phases), Mass density=297.6 kg/m3, isochoric heat capacity	109.73
600.77 K, Fluid (supercritical or subcritical phases), Mass density=299.79 kg/m3, isochoric heat capacity	98.67
600.77 K, Fluid (supercritical or subcritical phases), Mass density=305.44 kg/m3, isochoric heat capacity	101.79
600.8 K, Fluid (supercritical or subcritical phases), Mass density=308.35 kg/m3, isochoric heat capacity	92.66
600.81 K, Fluid (supercritical or subcritical phases), Mass density=294.44 kg/m3, isochoric heat capacity	113.83
600.81 K, Liquid, Isochoric heat capacity	113.83
600.85 K, Fluid (supercritical or subcritical phases), Mass density=294.44 kg/m3, isochoric heat capacity	111.38
600.85 K, Fluid (supercritical or subcritical phases), Mass density=297.6 kg/m3, isochoric heat capacity	105.54
600.85 K, Fluid (supercritical or subcritical phases), Mass density=305.44 kg/m3, isochoric heat capacity	96.13
600.86 K, Fluid (supercritical or subcritical phases), Mass density=299.79 kg/m3, isochoric heat capacity	99.55
600.9 K, Fluid (supercritical or subcritical phases), Mass density=342.18 kg/m3, isochoric heat capacity	88.83
600.93 K, Fluid (supercritical or subcritical phases), Mass density=292.97 kg/m3, isochoric heat capacity	112.06
600.93 K, Liquid, Isochoric heat capacity	112.06
600.94 K, Fluid (supercritical or subcritical phases), Mass density=292.97 kg/m3, isochoric heat capacity	106.05
600.94 K, Fluid (supercritical or subcritical phases), Mass density=294.44 kg/m3, isochoric heat capacity	103.91
600.94 K, Fluid (supercritical or subcritical phases), Mass density=297.6 kg/m3, isochoric heat capacity	103.82
600.94 K, Fluid (supercritical or subcritical phases), Mass density=305.44 kg/m3, isochoric heat capacity	99.89
600.94 K, Fluid (supercritical or subcritical phases), Mass density=320.33 kg/m3, isochoric heat capacity	94.88
600.98 K, Fluid (supercritical or subcritical phases), Mass density=308.35 kg/m3, isochoric heat capacity	89.18
601.02 K, Fluid (supercritical or subcritical phases), Mass density=305.44 kg/m3, isochoric heat capacity	99.43
601.02 K, Fluid (supercritical or subcritical phases), Mass density=320.33 kg/m3, isochoric heat capacity	95.95
601.02 K, Fluid (supercritical or subcritical phases), Mass density=342.18 kg/m3, isochoric heat capacity	87.43
601.04 K, Fluid (supercritical or subcritical phases), Mass density=292.97 kg/m3, isochoric heat capacity	101.74
601.05 K, Fluid (supercritical or subcritical phases), Mass density=291.16 kg/m3, isochoric heat capacity	111.35
601.05 K, Liquid, Isochoric heat capacity	111.35
601.08 K, Fluid (supercritical or subcritical phases), Mass density=291.16 kg/m3, isochoric heat capacity	105.11
601.11 K, Fluid (supercritical or subcritical phases), Mass density=292.97 kg/m3, isochoric heat capacity	94.42
601.11 K, Fluid (supercritical or subcritical phases), Mass density=301.94 kg/m3, isochoric heat capacity	97.37
601.11 K, Fluid (supercritical or subcritical phases), Mass density=305.44 kg/m3, isochoric heat capacity	95.1
601.11 K, Fluid (supercritical or subcritical phases), Mass density=320.33 kg/m3, isochoric heat capacity	90.05
601.12 K, Fluid (supercritical or subcritical phases), Mass density=291.16 kg/m3, isochoric heat capacity	93.41
601.16 K, Fluid (supercritical or subcritical phases), Mass density=188.05 kg/m3, isochoric heat capacity	106.16
601.16 K, Liquid, Isochoric heat capacity	102.61
601.19 K, Fluid (supercritical or subcritical phases), Mass density=301.94 kg/m3, isochoric heat capacity	94.4
601.19 K, Fluid (supercritical or subcritical phases), Mass density=305.44 kg/m3, isochoric heat capacity	94.51
601.19 K, Fluid (supercritical or subcritical phases), Mass density=320.33 kg/m3, isochoric heat capacity	88.79
601.2 K, Fluid (supercritical or subcritical phases), Mass density=188.05 kg/m3, isochoric heat capacity	93.94
601.21 K, Fluid (supercritical or subcritical phases), Mass density=291.16 kg/m3, isochoric heat capacity	94.65
601.21 K, Fluid (supercritical or subcritical phases), Mass density=292.97 kg/m3, isochoric heat capacity	99.73
601.24 K, Fluid (supercritical or subcritical phases), Mass density=342.18 kg/m3, isochoric heat capacity	88.83
601.28 K, Fluid (supercritical or subcritical phases), Mass density=320.33 kg/m3, isochoric heat capacity	91.03
601.29 K, Fluid (supercritical or subcritical phases), Mass density=301.94 kg/m3, isochoric heat capacity	98.17
601.3 K, Fluid (supercritical or subcritical phases), Mass density=188.05 kg/m3, isochoric heat capacity	86.48
601.34 K, Fluid (supercritical or subcritical phases), Mass density=285.71 kg/m3, isochoric heat capacity	107.97
601.34 K, Fluid (supercritical or subcritical phases), Mass density=301.94 kg/m3, isochoric heat capacity	95.7
601.34 K, Liquid, Isochoric heat capacity	107.97
601.37 K, Fluid (supercritical or subcritical phases), Mass density=285.71 kg/m3, isochoric heat capacity	99.59
601.37 K, Fluid (supercritical or subcritical phases), Mass density=294.44 kg/m3, isochoric heat capacity	105.52
601.37 K, Fluid (supercritical or subcritical phases), Mass density=297.6 kg/m3, isochoric heat capacity	102.84
601.37 K, Fluid (supercritical or subcritical phases), Mass density=342.18 kg/m3, isochoric heat capacity	89.33
601.38 K, Fluid (supercritical or subcritical phases), Mass density=188.05 kg/m3, isochoric heat capacity	66.72
601.39 K, Fluid (supercritical or subcritical phases), Mass density=291.16 kg/m3, isochoric heat capacity	92.22
601.45 K, Fluid (supercritical or subcritical phases), Mass density=285.71 kg/m3, isochoric heat capacity	94.44
601.45 K, Fluid (supercritical or subcritical phases), Mass density=294.44 kg/m3, isochoric heat capacity	102.41
601.45 K, Fluid (supercritical or subcritical phases), Mass density=297.6 kg/m3, isochoric heat capacity	99.66
601.45 K, Fluid (supercritical or subcritical phases), Mass density=301.94 kg/m3, isochoric heat capacity	92.5
601.46 K, Fluid (supercritical or subcritical phases), Mass density=299.79 kg/m3, isochoric heat capacity	97
601.47 K, Fluid (supercritical or subcritical phases), Mass density=320.33 kg/m3, isochoric heat capacity	92.7
601.5 K, Fluid (supercritical or subcritical phases), Mass density=188.05 kg/m3, isochoric heat capacity	72.1
601.53 K, Fluid (supercritical or subcritical phases), Mass density=299.79 kg/m3, isochoric heat capacity	99
601.54 K, Fluid (supercritical or subcritical phases), Mass density=285.71 kg/m3, isochoric heat capacity	89.22
601.54 K, Fluid (supercritical or subcritical phases), Mass density=297.6 kg/m3, isochoric heat capacity	101.22
